Experimental data: patent US20260345619A1 (Principia Biopharma Inc., priority 2023, published 2026)

Assay: Loss of asthma control (LOAC) events, 12-week ICS/LABA withdrawal study
Format: in vivo, human
From the text: The general construct of this 12-week Loss of Asthma Control (LOAC) study consisted of a 4-week standardized ICS/LABA background therapy stabilization phase, a 4or 5-week background therapy withdrawal phase and a 3- or 4-week no background therapy phase, followed by a 4-week post IMP treatment safety follow-up period at the beginning of which, pre-screening asthma controller medications are restarted. Participants had access to short-acting β-agonist (SABA) reliever medication at all times during the protocol.
The primary endpoint was the proportion of patients with LOAC. The key secondary endpoint for the study was change in pre-bronchodilator FEV1 from baseline at EOT.
The primary endpoint was proportion of participants with LOAC during the 12-week treatment period.
Note that if the number of participants in some regions was too low, these regions may have been pooled with other regions. This strategy also applied to all the rest of the analyses where region was one of the covariates.
To assess the consistency in treatment effects across different subgroup levels, subgroup analyses were to be performed for the primary efficacy endpoint with respect to age group, gender, region, and other factors.
Secondary endpoints included pre-bronchodilator FEV1 change from baseline at EOT, ACQ-5 score change from baseline, and AQLQ score change from baseline. Other secondary and exploratory endpoints are described in Table 2.

[1] = 400 mg TID cohort, N = 64, mITT
[2] = 400 mg TID cohort, age <45 years, n = 25
[3] = 400 mg TID cohort, age ≥45 years, n = 39
[4] = 400 mg TID cohort, baseline BMI <25 kg/m^2, n = 12
[5] = 400 mg TID cohort, baseline BMI ≥25-<30 kg/m^2, n = 29
[6] = 400 mg TID cohort, baseline BMI ≥30 kg/m^2, n = 23
[7] = 400 mg TID cohort, baseline weight <60 kg, n = 2
[8] = 400 mg TID cohort, baseline weight ≥60-<90 kg, n = 41
[9] = 400 mg TID cohort, baseline weight ≥90 kg, n = 21
[10] = 400 mg TID cohort, female, n = 39
[11] = 400 mg TID cohort, male, n = 25
[12] = 400 mg TID, N=64, 12 weeks, mITT
[13] = 400 mg TID, 1 exacerbation within 2 years
[14] = 400 mg TID, 2 exacerbations within 2 years
[15] = 400 mg TID, FEV1 reversibility <12 %
[16] = 400 mg TID, FEV1 reversibility ≥12 %
[17] = 400 mg TID, age at onset <12 years
[18] = 400 mg TID, age at onset <18 years
[19] = 400 mg TID, age at onset ≥18-<40 years
[20] = 400 mg TID, age at onset ≥18 years
[21] = 400 mg TID, age at onset ≥40 years

For CC(C)(C=C(C#N)C(=O)N1CCC[C@@H](n2nc(-c3ccc(Oc4ccccc4)cc3F)c3c(N)ncnc32)C1)N1CCN(C2COC2)CC1 (mixture of isomers) [rilzabrutinib, (R)-2-[3-[4-amino-3-(2-fluoro-4-phenoxy-phenyl)pyrazolo[3,4-d]pyrimidin-1-yl]piperidine-1-carbonyl]-4-methyl-4-[4-(oxetan-3-yl)piperazin-1-yl]pent-2-enenitrile], the “Intervention discontinuation due to lack of efficacy or an AE related to asthma worsening, number” value [1] was 1, the “Intervention discontinuation due to lack of efficacy or an AE related to asthma worsening, percentage” value [1] was “(1.6)” and the “Number of participants requiring hospitalization or emergency room visit” value [1] was 0. The “Number of participants with LOAC: Yes” value [1] was 12, the “Number of participants with increase in ICS ≥4 times the last prescribed ICS dose (or ≥50% of the prescribed ICS dose at baseline if background therapy withdrawal completed)” value [1] was 0 and the “Number of participants with ≥6 additional reliever puffs of salbutamol/albuterol or levosalbutamol/levalbuterol in a 24 hour period (compared with baseline) on 2 consecutive days” value [1] was 0. The “Number of participants with ≥30% reduction from baseline in AM PEF on 2 consecutive days” value [1] was 10, the “Participants with LOAC not triggered by use of rescue medication, number” value [1] was 10 and the “Participants with LOAC not triggered by use of rescue medication, percentage” value [1] was “(15.6)”. For the same compound, the “Participants with LOAC triggered by use of rescue medication, number” value [1] was 1, the “Participants with LOAC triggered by use of rescue medication, percentage” value [1] was “(1.6)” and the “Percentage of participants with LOAC: No” value [1] was “(81.3)”. The “Percentage of participants with LOAC: Yes” value [1] was “(18.8)”, the “Percentage of participants with ≥30% reduction from baseline in AM PEF on 2 consecutive days” value [1] was “(15.6)” and the “LOAC incidence, number of participants” value (400 mg TID cohort, Western Countries, n = 2) was 0. For the same compound, the “LOAC incidence, number of participants” value [2] was 2, the “LOAC incidence, percentage” value [2] was “(8.0)” and the “LOAC OR vs. placebo” value (400 mg TID cohort, age <45 years, 95% CI (0.028, 0.725)) was 0.142. For the same compound, the “LOAC RD vs. placebo” value (400 mg TID cohort, age <45 years, 95% CI (−0.505, −0.093)) was −0.299, the “LOAC incidence, number of participants” value [3] was 10 and the “LOAC incidence, percentage” value [3] was “(25.6)”. The “LOAC OR vs. placebo” value (400 mg TID cohort, age ≥45 years, 95% CI (0.408, 3.236)) was 1.149, the “LOAC RD vs. placebo” value (400 mg TID cohort, age ≥45 years, 95% CI (−0.165, 0.216)) was 0.026 and the “LOAC incidence, number of participants” value [4] was 3. The “LOAC incidence, percentage” value [4] was “(25.0)”, the “LOAC OR vs. placebo” value (400 mg TID cohort, baseline BMI <25 kg/m^2, 95% CI (0.121, 2.801)) was 0.583 and the “LOAC RD vs. placebo” value (400 mg TID cohort, baseline BMI <25 kg/m^2, 95% CI (−0.431, 0.203)) was −0.114. The “LOAC incidence, number of participants” value [5] was 3, the “LOAC incidence, percentage” value [5] was “(10.3)” and the “LOAC OR vs. placebo” value (400 mg TID cohort, baseline BMI ≥25-<30 kg/m^2, 95% CI (0.064, 1.172)) was 0.274. The “LOAC RD vs. placebo” value (400 mg TID cohort, baseline BMI ≥25-<30 kg/m^2, 95% CI (−0.398, 0.012)) was −0.193, the “LOAC incidence, number of participants” value [6] was 6 and the “LOAC incidence, percentage” value [6] was “(26.1)”. The “LOAC OR vs. placebo” value (400 mg TID cohort, baseline BMI ≥30 kg/m^2, 95% CI (0.313, 5.604)) was 1.324, the “LOAC RD vs. placebo” value (400 mg TID cohort, baseline BMI ≥30 kg/m^2, 95% CI (−0.206, 0.307)) was 0.050 and the “LOAC incidence, number of participants” value [7] was 1. The “LOAC incidence, percentage” value [7] was “(50.0)”, the “LOAC OR vs. placebo” value (400 mg TID cohort, baseline weight <60 kg, 95% CI (0.140, 64.262)) was 3.000 and the “LOAC RD vs. placebo” value (400 mg TID cohort, baseline weight <60 kg, 95% CI (−0.485, 0.985)) was 0.250. For the same compound, the “LOAC incidence, number of participants” value [8] was 8, the “LOAC incidence, percentage” value [8] was “(19.5)” and the “LOAC OR vs. placebo” value (400 mg TID cohort, baseline weight ≥60-<90 kg, 95% CI (0.182, 1.392)) was 0.503. For the same compound, the “LOAC RD vs. placebo” value (400 mg TID cohort, baseline weight ≥60-<90 kg, 95% CI (−0.319, 0.059)) was −0.130, the “LOAC incidence, number of participants” value [9] was 3 and the “LOAC incidence, percentage” value [9] was “(14.3)”. For the same compound, the “LOAC OR vs. placebo” value (400 mg TID cohort, baseline weight ≥90 kg, 95% CI (0.095, 2.645)) was 0.500, the “LOAC RD vs. placebo” value (400 mg TID cohort, baseline weight ≥90 kg, 95% CI (−0.367, 0.153)) was −0.107 and the “LOAC incidence, number of participants” value [10] was 8. The “LOAC incidence, percentage” value [10] was “(20.5)”, the “LOAC OR vs. placebo” value (400 mg TID cohort, female, 95% CI (0.224, 1.828)) was 0.640 and the “LOAC RD vs. placebo” value (400 mg TID cohort, female, 95% CI (−0.291, 0.123)) was −0.084. The “LOAC incidence, number of participants” value [11] was 4, the “LOAC incidence, percentage” value [11] was “(16.0)” and the “LOAC OR vs. placebo” value (400 mg TID cohort, male, 95% CI (0.091, 1.966)) was 0.423. For the same compound, the “participants without LOAC, number” value [12] was 52, the “participants without LOAC, percent” value [12] was “(81.3)” and the “participants with LOAC, number” value (400 mg TID, N=64, 12 weeks, mITT, placebo 20) was 12. For the same compound, the “participants with LOAC, percent” value (400 mg TID, N=64, 12 weeks, mITT, placebo […]) was 18.8%, the “RRR vs. placebo (%), LOAC” value (400 mg TID, mITT) was 34.7% and the “RR vs. placebo, LOAC” value (400 mg TID, mITT, 95% CI 0.348, 1.226) was 0.653. The “RD (risk difference) vs. placebo, LOAC” value (400 mg TID, mITT, 95% CI −0.238, 0.061) was −0.088, the OR vs. placebo [13] was 0.323 and the “RD vs. Placebo” value [13] was −0.194. The “LOAC, number” value [14] was 7, the OR vs. placebo [14] was 1.896 and the “RD vs. Placebo” value [14] was 0.117. For the same compound, the “LOAC, number” value (400 mg TID, >2 exacerbations within 2 years) was 0, the “LOAC, number” value [15] was 9 and the OR vs. placebo [15] was 0.643. For the same compound, the “RD vs. Placebo” value [15] was −0.082, the “LOAC, number” value [16] was 1 and the OR vs. placebo [16] was 0.417. For the same compound, the “RD vs. Placebo” value [16] was −0.090, the “LOAC, number” value [17] was 2 and the OR vs. placebo [17] was 0.250. The “RD vs. Placebo” value [17] was −0.257, the “LOAC, number” value [18] was 2 and the OR vs. placebo [18] was 0.218. For the same compound, the “RD vs. Placebo” value [18] was −0.245, the “LOAC, number” value (400 mg TID, age at onset ≥12-<18 years) was 0 and the “LOAC, number” value [19] was 6. The OR vs. placebo [19] was 0.514, the “RD vs. Placebo” value [19] was −0.135 and the “LOAC, number” value [20] was 10. The OR vs. placebo [20] was 0.769, the “RD vs. Placebo” value [20] was −0.049 and the “LOAC, number” value [21] was 4. For the same compound, the OR vs. placebo [21] was 1.619, the “RD vs. Placebo” value [21] was 0.072 and the “LOAC, number” value (400 mg TID, all others than low EOS and low FeNO) was 8.
